Experimental data as given in patent publication US20150209428A1, “PHARMACEUTICAL COMPOSITIONS FOR TOPICAL DELIVERY OF PHOTOSENSITIZERS AND USES THEREOF” (DERMIRA, INC., priority 2012, published 2015).

Key:
[1] = Solubility of lemuteporfin in the LTS formulation (stirred, sampled, filtered); assay type: physicochemical; settings: for Lemuteporfin content (% w/w), solubility in the formulation of Table 5: filtered
Experimental: The solution was stirred and samples were removed at various time points, and then filtered to determine the amount of undissolved lemuteporfin. The amount of lemuteporfin that dissolved was approximately 0.048%.
Studies were conducted to determine the effect of certain of the LTS excipients on the solubility of lemuteporfin.

[2] = Apparent solubility of lemuteporfin in various solvents (HPLC); assay type: physicochemical
From the text: The solubility of lemuteporfin in various solvent compositions is shown in the last column of Table 3. All values were obtained analytically by HPLC analysis.
Solubility results for lemuteporfin indicated maximum solubility in solvent-based formulations containing primarily benzyl alcohol. The amount of lemuteporfin that can be solubilized in benzyl alcohol following heating is approximately 2.5% w/w. The addition of other solvents reduces solubility by approximately the amount of the new solvent introduced. Diethylene glycol monoethyl ether (DGME) is about 20% as efficient at dissolving lemuteporfin as benzyl alcohol.

## lemuteporfin
[1]; isopropyl alcohol removed (data not shown)
  solubility of lemuteporfin in LTS solution system: 0.07 % w/w
[1]; room temperature
  amount of lemuteporfin that dissolved in the Table 5 components: approximately 0.048%
[1]; room temperature, time point 0.17 hours
  Lemuteporfin content (% w/w), solubility in the formulation of Table 5: 0.0241 % w/w
[1]; room temperature, time point 2.47 hours
  Lemuteporfin content (% w/w), solubility in the formulation of Table 5: 0.0482 % w/w
[1]; room temperature, time point 4.37 hours
  Lemuteporfin content (% w/w), solubility in the formulation of Table 5: 0.0453 % w/w
[1]; room temperature, time point 6.37 hours
  Lemuteporfin content (% w/w), solubility in the formulation of Table 5: 0.0463 % w/w
[1]; room temperature, time point 23.5 hours
  Lemuteporfin content (% w/w), solubility in the formulation of Table 5: 0.0370 % w/w
[1]; with isopropyl alcohol (data not shown)
  solubility of lemuteporfin in LTS solution system: approximately 0.03 % w/w
[1]; with polysorbate 80 (data not shown)
  solubility of lemuteporfin in LTS solution system: 0.037 % w/w
[1]; without polysorbate 80 (data not shown)
  solubility of lemuteporfin in LTS solution system: 0.027 % w/w
[2]; DGME versus benzyl alcohol
  efficiency of DGME at dissolving lemuteporfin relative to benzyl alcohol: about 20%
[2]; benzyl alcohol, following heating
  amount of lemuteporfin that can be solubilized in benzyl alcohol: approximately 2.5 % w/w
[2]; solvent % w/w: Benzyl Alcohol 30, Ethanol (190) 70
  Apparent Solubility, % w/w Lemuteporfin: 0.455 % w/w
[2]; solvent % w/w: Benzyl Alcohol 30, Oleyl Alcohol 70
  Apparent Solubility, % w/w Lemuteporfin: 0.166 % w/w
[2]; solvent % w/w: Benzyl Alcohol 40, Isopropyl Myristate 60
  Apparent Solubility, % w/w Lemuteporfin: 0.090 % w/w
[2]; solvent % w/w: Benzyl Alcohol 50, Ethanol (190) 50
  Apparent Solubility, % w/w Lemuteporfin: 0.453 % w/w
[2]; solvent % w/w: Benzyl Alcohol 50, Oleic Acid 50
  Apparent Solubility, % w/w Lemuteporfin: 0.409 % w/w
[2]; solvent % w/w: Benzyl Alcohol 50, Oleyl Alcohol 50
  Apparent Solubility, % w/w Lemuteporfin: 0.228 % w/w
[2]; solvent % w/w: Benzyl Alcohol 50, Propylene Glycol 50
  Apparent Solubility, % w/w Lemuteporfin: 0.494 % w/w
[2]; solvent % w/w: Benzyl Alcohol 90, Isopropyl Myristate 10
  Apparent Solubility, % w/w Lemuteporfin: 2.30 % w/w
[2]; solvent % w/w: Benzyl Alcohol 90, Oleic Acid 10
  Apparent Solubility, % w/w Lemuteporfin: 2.33 % w/w
[2]; solvent % w/w: Benzyl Alcohol 90, Oleyl Alcohol 5, Oleic Acid 5
  Apparent Solubility, % w/w Lemuteporfin: 2.22 % w/w
[2]; solvent % w/w: Benzyl Alcohol 90, Oleyl Alcohol 10
  Apparent Solubility, % w/w Lemuteporfin: 2.24 % w/w
[2]; solvent % w/w: Benzyl Alcohol 100
  Apparent Solubility, % w/w Lemuteporfin: 2.55 % w/w
[2]; solvent % w/w: DGME 45, Benzyl Alcohol 45, Oleyl Alcohol 5, Oleic Acid 5
  Apparent Solubility, % w/w Lemuteporfin: 1.373 % w/w
[2]; solvent % w/w: DGME 50, Benzyl Alcohol 15, Oleic Acid 35
  Apparent Solubility, % w/w Lemuteporfin: 0.230 % w/w
[2]; solvent % w/w: DGME 50, Benzyl Alcohol 15, Oleyl Alcohol 35
  Apparent Solubility, % w/w Lemuteporfin: 0.200 % w/w
[2]; solvent % w/w: DGME 50, Benzyl Alcohol 50
  Apparent Solubility, % w/w Lemuteporfin: 1.57 % w/w
[2]; solvent % w/w: DGME 52, Benzyl Alcohol 16, Oleyl Alcohol 16, Oleic Acid 16
  Apparent Solubility, % w/w Lemuteporfin: 0.210 % w/w
[2]; solvent % w/w: DGME 65, Oleyl Alcohol 17.5, Oleic Acid 17.5
  Apparent Solubility, % w/w Lemuteporfin: 0.271 % w/w
[2]; solvent % w/w: DGME 65, Oleyl Alcohol 35
  Apparent Solubility, % w/w Lemuteporfin: 0.430 % w/w
[2]; solvent % w/w: DGME 90, Isopropyl Myristate 10
  Apparent Solubility, % w/w Lemuteporfin: 0.430 % w/w
[2]; solvent % w/w: DGME 90, Oleyl Alcohol 5, Oleic Acid 5
  Apparent Solubility, % w/w Lemuteporfin: 0.420 % w/w
[2]; solvent % w/w: DGME 90, Oleyl Alcohol 10
  Apparent Solubility, % w/w Lemuteporfin: 0.420 % w/w
